Source: patent US20250093330A1, “METHOD AND DEVICE FOR DRUG SCREENING” (SHANGHAI LIDE BIOTECH CO., LTD., priority 2021, published 2025)
Entries after “also recorded” stand apart in the source; their conditions may differ.

Tests used:
Format in all cases: in vivo, human (patient-derived), mouse host
[1] = tested on: primary duodenal cancer cells; experiment: method of the present invention, drug screening on primary duodenal cancer cells from a patient; conditions: primary tumor tissue of duodenal ampullary tumor patient, FIG. 9
Source text: 4 to 5-week old female Nu/Nu mice was ordered from the supplier (purchased from Beijing Vital River Laboratory Animal Technology Co., Ltd.) and raised in SPF grade animal room. Before the experiment, the animal was adapted for at least three days. Freshly collected tumor samples obtained from surgery or from mouse PDX models containing tumor cells from patient were kept in a storage tube and transported to the laboratory on ice in the shortest possible time. After removing the non-tumor tissues and necrotic tissues in the biosafety cabinet, the tumor samples were cut into cubes of 1-3 mm^2, rinsed with HBSS. […] Collected cell suspension and centrifuged the suspension at 1000 rpm for 3 minutes to remove supernatant, and re-suspended in PBS containing 1% PBS; counted cell numbers and adjusted cell density to 1×10^8/ml. […] Counted the number of cells, and adjusted the cell density to 1-10×10^5/ml. […] 5-14 day after administration, the mice were killed and cell viability was detected by quantitative analysis of ATP by CellTiter-Glo luminescence in the modified polyvinylidene fluoride tubes. According to the viability of tumor cells in the control group, the percentages of cell viable proliferation (t/c %) in the experiment groups were calculated, and then the efficacy of the corresponding drugs was evaluated. […] The viability of the tumor cells was measured.

[2] = tested on: patient-derived gastric cancer cells in GAPF155; experiment: traditional PDX method, mouse PDX model GAPF155; conditions: FIG. 2
Source text: (§1) The PDX model well maintains the biological characteristics the of primary tumor cells of a patient. The model is obtained by transplanting a fresh tumor tissue of a patient into an immune deficient mouse (e.g. a nude mouse or a severe combined immune deficiency (SCID) mouse). Such models maintain the genetic characteristics of the patient as well as tumor heterogeneity. Presently, the major difficulty of using PDX model for individualized precision medical treatment is the lengthy time period spent on modelling and sensitivity test, and the low success rate for modelling. For example, primary cell transplantation takes 2-3 months, and the drug sensitivity test takes 3-4 months. In addition, PDX modelling requires a high level of technical skills. Surgeons, histologists and researchers need to cooperate closely after the tumor sample is obtained from the patient. Therefore, how to improve the method for determining the sensitivity of tumor cells to an anti-tumor drug by using a PDX model becomes an urgent issue. The method for PDX mouse modelling is known in the art. […] The sensitivity of the patient-derived gastric cancer cells in GAPF155 to S-1 was detected by the traditional PDX method and the method of the present invention (FIG. 2 and FIG. 3).

[3] = tested on: patient-derived gastric cancer cells in GAPF155; experiment: method of the present invention (implanted PVDF tube, CellTiter-Glo ATP viability), GAPF155 cells; conditions: FIG. 3
Experimental: The viability of the tumor cells was measured. Mouse PDX model GAPF155 was obtained by implanting primary gastric cancer cells into mice. After 2 months of feeding, patient-derived gastric cancer cells were obtained from GAPF155. The sensitivity of the patient-derived gastric cancer cells in GAPF155 to S-1 was detected by the traditional PDX method and the method of the present invention (FIG. 2 and FIG. 3).

[4] = tested on: patient-derived gastric cancer cells from GAPF157; experiment: method of the present invention (implanted PVDF tube, CellTiter-Glo ATP viability), GAPF157 cells; conditions: FIG. 5
Experimental: The viability of the tumor cells was measured. Mouse PDX model […] was obtained by implanting primary gastric cancer cells into mice. After 2 months of feeding, patient-derived gastric cancer cells were obtained from GAPF157. The sensitivity of the patient-derived gastric cancer cells in […] to S-1 was detected by the traditional PDX method and the method of the present invention (FIG. 4 and FIG. 5).

[5] = tested on: patient-derived gastric cancer cells from GAPF157; experiment: traditional PDX method, mouse PDX model GAPF157; conditions: FIG. 4
Source text: as §1, with “(FIG. 4” for “(FIG. 2”, “FIG. 5).” for “FIG. 3).”

Compound | response to drug in drug screening [1] | sensitivity of the tumor cells to the drug / anti-tumor activity [2] | sensitivity of the tumor cells to the drug / anti-tumor activity [3] | sensitivity of the tumor cells to the drug / anti-tumor activity [4] | sensitivity of the tumor cells to the drug / anti-tumor activity [5]
Nc1ccn([C@@H]2O[C@H](CO)[C@@H](O)C2(F)F)c(=O)n1 [gemcitabine] | well responded |  |  |  | 
Tegafur [S-1] |  | sensitive; also recorded: good anti-tumor activity | sensitive; also recorded: good anti-tumor activity | sensitive; also recorded: good anti-tumor activity | sensitive; also recorded: good anti-tumor activity
